Laboratory results published in patent publication US20240335462A1, “SULFUR/PHOSPHORUS-CONTAINING ARYL COMPOUND AND APPLICATION THEREOF” (MEDSHINE DISCOVERY INC., priority 2021, published 2024).

What was measured:
[1] = biological target: Ba/F3-FL-TYK2-E957D cells (Homo sapiens, UniProt P29597, E957D, cells depend on it); assay: Proliferation of Ba/F3-FL-TYK2-E957D cells (CellTiter-Glo); type: cell-based, mouse; details: 72 hours, read-out: Half maximal inhibitory concentration IC50 for cells Ba/F3-FL-TYK2-E957D
Ba/F3-FL-TYK2-E957D cells, sequence (P29597 whole entry E957D): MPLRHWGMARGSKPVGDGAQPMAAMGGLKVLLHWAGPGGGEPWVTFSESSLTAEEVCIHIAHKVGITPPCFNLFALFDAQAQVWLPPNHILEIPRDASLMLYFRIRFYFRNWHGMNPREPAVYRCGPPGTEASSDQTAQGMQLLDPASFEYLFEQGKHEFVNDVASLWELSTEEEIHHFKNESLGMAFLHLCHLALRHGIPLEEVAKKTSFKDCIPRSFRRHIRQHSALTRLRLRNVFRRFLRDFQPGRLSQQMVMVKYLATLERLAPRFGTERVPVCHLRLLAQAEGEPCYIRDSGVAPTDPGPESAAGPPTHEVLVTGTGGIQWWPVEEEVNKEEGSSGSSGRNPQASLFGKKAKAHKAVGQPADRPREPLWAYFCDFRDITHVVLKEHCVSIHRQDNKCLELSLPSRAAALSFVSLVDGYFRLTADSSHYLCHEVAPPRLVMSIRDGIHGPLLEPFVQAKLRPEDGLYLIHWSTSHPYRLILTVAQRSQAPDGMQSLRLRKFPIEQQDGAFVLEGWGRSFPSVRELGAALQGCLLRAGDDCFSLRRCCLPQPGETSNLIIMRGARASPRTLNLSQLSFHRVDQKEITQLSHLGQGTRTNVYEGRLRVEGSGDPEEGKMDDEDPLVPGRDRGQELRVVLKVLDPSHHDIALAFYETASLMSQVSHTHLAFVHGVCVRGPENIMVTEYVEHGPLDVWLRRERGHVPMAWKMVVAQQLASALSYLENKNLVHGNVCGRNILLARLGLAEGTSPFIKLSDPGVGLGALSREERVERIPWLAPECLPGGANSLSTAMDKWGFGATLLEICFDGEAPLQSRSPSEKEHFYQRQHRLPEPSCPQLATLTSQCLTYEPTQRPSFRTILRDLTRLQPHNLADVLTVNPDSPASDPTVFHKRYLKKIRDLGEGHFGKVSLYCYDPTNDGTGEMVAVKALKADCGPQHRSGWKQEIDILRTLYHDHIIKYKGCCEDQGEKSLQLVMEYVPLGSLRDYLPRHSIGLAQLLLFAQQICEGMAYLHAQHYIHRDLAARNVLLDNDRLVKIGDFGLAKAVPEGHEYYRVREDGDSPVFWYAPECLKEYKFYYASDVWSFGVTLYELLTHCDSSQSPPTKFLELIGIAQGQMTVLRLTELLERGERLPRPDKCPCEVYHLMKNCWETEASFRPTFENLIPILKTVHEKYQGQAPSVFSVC
Method in brief: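 Ba/F3 cells stably expressing human full-length TYK2-E957D (JH1+JH2) or TEL-TYK2 (JH1 only) were plated at 2000 cells/well with 9-point 3-fold compound dilutions (0.1% DMSO) for 72 h at 37° C. Viable cells were measured by CellTiter-Glo luminescence; IC50 came from nonlinear S-curve fits.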

[2] = tested on: TYK2 signaling pathway (IFN-α/pSTAT1); assay: IFN-α-induced STAT1 phosphorylation in mouse whole blood; type: cell-based; details: CD3+ cells
Protocol: The purpose of this experiment was to detect the inhibitory effect of the compound on the JAK-STAT signaling pathway activated by IFN-α in mouse whole blood. Fresh mouse whole blood was collected and placed in a 96-well plate. The test compound was added and incubated for 1 hour, followed by stimulation with IFN-α. The corresponding STAT1 phosphorylation level in the CD3^+ cell population was analyzed using flow cytometer by means of surface antibody staining and intracellular phosphorylated antibody staining. The IFN-α-induced STAT1 phosphorylation in mouse whole blood is dependent on TYK2 activity. By detecting the inhibitory activity of the compound on downstream […] phosphorylation, the half maximal inhibitory concentration (IC50) of the compound on TYK2 signaling pathway activity can be determined.
• a) The compound was prepared into a 10 mM solution with dimethyl sulfoxide (DMSO), and diluted in DMSO to a solution with various concentrations, 500 times the final concentration. • b) 5 μL of the diluted compound was transferred to 120 μL of phosphate buffered saline (PBS) containing 0.1% bovine serum albumin (BSA). • c) Positive and negative control groups were set up, with both finally containing 0.2% DMSO.
• a) 67.5 μL of mouse whole blood was added to each well of a 96-well cell culture plate. • b) 3.5 μL of the diluted compound was added thereto and mixed thoroughly. • c) The plate was incubated in a 37° C. incubator for 60 minutes. • d) Mouse interferon recombinant protein was diluted 125-fold in PBS containing 0.1% BSA, and anti-mouse CD3 antibody was diluted 5-fold in PBS containing 0.1% BSA. 5 μL of diluted anti-mouse CD3 antibody and 4 μL of diluted mouse interferon recombinant protein were added to each well. • e) The plate was incubated in a 37° C. incubator for 30 minutes. • f) All cells were transferred to a 96-well deep well plate, and 1 mL of 37° C. pre-warmed 1× lysis/fixation buffer was added thereto. • g) The cells were incubated in the dark at 37° C. for 10 minutes. • h) After centrifugation at 600 g for 5 minutes, the supernatant was discarded, and the cells were washed twice with 1 mL of PBS by centrifugation. • i) 0.4 mL per well of permeabilization buffer was added to the cell pellet and mixed thoroughly. The cells were incubated in the dark at 4° C. for 30 minutes. • j) After centrifugation at 600 g for 5 minutes, the supernatant was discarded, and the cells were washed twice with 1 mL of flow cytometry staining buffer (PBS+0.2% BSA+1 mM EDTA) by centrifugation. • k) Anti-STAT1 antibody was diluted 65-fold in flow cytometry staining buffer, and added to cell-containing wells at 100 μL per well and mixed thoroughly. • l) The cells were incubated at room temperature for 40 minutes. • m) 1 mL per well of flow cytometry staining buffer was added, and the cells were washed twice by centrifugation at 600 g for 5 minutes. • n) The supernatant was discarded, and the cell pellet was resuspended in 300 μL of flow cytometry staining buffer. • o) The samples were loaded for analysis using the Beckman CytoFlex flow cytometer.
Data were analyzed using FlowJo software. Curve fitting was performed and the IC50 was calculated using GraphPad Prism 8 software.

[3] = tested on: Ba/F3-TEL-TYK2 cells; assay: Proliferation of Ba/F3-TEL-TYK2 cells (CellTiter-Glo); type: cell-based; details: 72 hours, read-out: Half maximal inhibitory concentration IC50 for cells Ba/F3-TEL-TYK2
Text: Adenosine triphosphate (ATP) serves as a universal energy carrier in various life processes, representing the smallest unit of energy storage and transfer. The CellTiter-Glo™ Luminescent Cell Viability Assay Kit utilizes luciferase as a detection agent. During the luminescent process, luciferase requires the participation of ATP. By adding CellTiter-Glo™ reagent to the cell culture medium and measuring the luminescence, the light signal was directly proportional to the amount of ATP in the system, and ATP was positively correlated with the number of viable cells. Therefore, cell proliferation can be detected by measuring ATP content using the CellTiter-Glo kit. In this test, the cell lines used were Ba/F3-FL-TYK2-E957D and Ba/F3-TEL-TYK2. Ba/F3-FL-TYK2-E957D cells can stably express the exogenously introduced human TYK2-E957D gene, and the TYK2-E957D gene sequence contains both JH1 and JH2 domains. On the other hand, Ba/F3-TEL-TYK2 cells can stably express the exogenously introduced human TEL-TYK2 gene, and the TEL-TYK2 gene sequence contains only the JH1 domain of TYK2.
The cell lines were cultured in an incubator at 37° C. with 5% CO2. Regular passaging was performed, and cells in the logarithmic growth phase were selected for plating.
• a) The test compounds were prepared into a 10 mM solution with DMSO, and then diluted to 0.3 or 1 mM with DMSO. • b) Preparation of 1000× compound storage plate (tube): The compounds were 3-fold serially diluted from the highest concentration to the lowest concentration, creating 9 different concentrations. • c) Preparation of 20× compound working solution: 49 μL of cell culture medium was added to a flat-bottomed 96-well transparent drug plate. From the 1000× compound storage plate, 1 μL of the compound was pipetted into the cell culture medium in the 96-well transparent drug plate. In the solvent control, 1 μL of DMSO was added. After the compound or DMSO was added, the mixture was homogenized using a multi-channel pipette.
• a) Cells were stained with trypan blue and viable cells were counted to ensure a cell viability of 90% or more. • b) 95 μL of cell suspension (2000 cells/well) was added to each well of the compound assay cell plate, and cell-free culture medium containing 0.1% DMSO was added to the Min control wells. • c) Administration in the compound assay cell plate: 5 μL of 20× compound working solution was added to the cell culture plate. 5 μL of DMSO-cell culture medium mixture was added to the Max control wells. The final concentration of DMSO was 0.1%. • d) The culture plate was then incubated in an incubator at 37° C. with 5% CO2 for 72 hours.
The following steps were conducted in accordance with the instructions of the Promega CellTiter-Glo Luminescent Cell Viability Assay Kit (Promega-G7573). • a) CellTiter-Glo buffer was thawed and brought to room temperature. • b) CellTiter-Glo substrate was also brought to room temperature. • c) CellTiter-Glo buffer was added to a bottle of CellTiter-Glo substrate to dissolve the substrate, thereby preparing CellTiter-Glo working solution. • d) The mixture was slowly vortexed and shaken to be fully dissolved. • e) The cell culture plate was removed and allowed to equilibrate to room temperature for 10 minutes. • f) 50 μL (equal to half the volume of cell culture medium in each well) of CellTiter-Glo working solution was added to each well. • g) The culture plate was shaken on an orbital shaker for 2 minutes to induce cell lysis. • h) The plate was then left at room temperature for 10 minutes to stabilize the luminescent signal. • i) The luminescent signal was detected using a SpectraMax Paradigm plate reader.
Data analysis was conducted using GraphPad Prism 5.0 software. Nonlinear S-curve regression was employed to fit the data and generate dose-response curves. From these curves, the IC50 values were calculated.

| SMILES | GI50 [1] [nM] | IC50 [2] [nM] | IC50 [3] [nM] |
| --- | --- | --- | --- |
| CNC(=O)c1nnc(NC(=O)C2CC2)cc1Nc1cccc(-c2ncc(S(=N)(=O)C(C)C)cn2)c1OC (single isomer, unassigned) [WX-011A] | 5.3 | 148 | > 10000 |
| CNC(=O)c1nnc(NC(=O)C2CC2)cc1Nc1cccc(-c2ncc(S(=N)(=O)C(C)C)cn2)c1OC (single isomer, unassigned) [WX-011B] | 3.3 | 375 | > 10000 |
| CNC(=O)c1nnc(NC(=O)C2CC2)cc1Nc1cccc(-c2ccc(S(=N)(=O)C(C)C)cn2)c1OC (single isomer, unassigned) [WX-012A] | 3.3 |  | > 10000 |
| CNC(=O)c1nnc(NC(=O)C2CC2)cc1Nc1cccc(-c2ccc(S(=N)(=O)C(C)C)cn2)c1OC (single isomer, unassigned) [WX-012B] | 2.4 | 419 | > 10000 |
| CNC(=O)c1cnc(NC(=O)C2CC2)cc1Nc1cccc(-c2ccc(S(=O)(=O)C(C)C)cn2)c1OC.Cl [Hydrochloride of WX-020] | 1.5 |  | > 10000 |
| CNC(=O)c1cnc(NC(=O)C2CC2)cc1Nc1cccc(-c2ncc(S(=O)(=O)C(C)C)cn2)c1OC [WX-019] | 2 | 427 | > 10000 |
| CNC(=O)c1cnc(NC(=O)C2CC2)cc1Nc1cccc(-c2ccc(S(=O)(=O)C(C)C)cn2)c1OC [WX-020] |  | 369 |  |
| CNC(=O)c1nnc(NC(=O)C2CC2)cc1Nc1cccc(-c2ccc(P(=O)(C3CC3)C3CC3)cn2)c1OC [WX-021] | 2.5 | 452 | > 10000 |
